Measurements taken from patent publication US9586959B2, “Substituted tricyclic heterocycles as histamine 4 receptor inhibitors” (C&C RESEARCH LABORATORIES, priority 2011, dated 2017).
In brackets after ≈: the same amount, converted by molar mass.

Legend:
[1] = biological target: human histamine 4 receptor (hH4R) (Homo sapiens (Human), UniProt Q9H3N8); test: Binding affinity of human histamine 4 receptor (hH4R), [3H] labeled histamine displacement; conditions: hH4R-overexpressed cell membrane, [3H] histamine
Experimental: 20 μL of the prepared compound solution was transferred to each well of a 96-well plate, and then 20 μL of 100 μM histamine diluted with analysis buffer solution and 1% DMSO were transferred to each well to calculate non-specific binding and total binding degree. 25 μg of human histamine 4 receptor-overexpressed cell membrane (PerkinElmer) was diluted into 160 μL of analysis buffer solution and that was transferred to each well. [^3H] labeled histamine (PerkinElmer) was diluted into 1 μM concentration, 20 μL was allocated in each well, and then it was kept in a 27° C. incubator for 30 minutes. After the reaction, 200 μL of the mixture was transferred to a glass fiber plate in which 0.5% polyethylene amine was presoaked, and then non-binding [^3H] labeled histamine was removed in vacuum. After 4 times washing with 200 μL of washing buffer solution (50 mM tris-HCl, pH 7.4), the plate was dried in a 37° C. oven for 18 hours. 100 μL of betascint cocktail solution was added to each well, and after 1 hour CPM (count per minute) value of [^3H] labeled histamine was measured by using Wallac beta-counter TriLux.

[2] = biological target: human histamine 3 receptor (hH3R) (Homo sapiens (Human), UniProt Q9Y5N1); test: Binding affinity of human histamine 3 receptor (hH3R), [3H] labeled N-α-methylhistamine displacement; conditions: hH3R-overexpressed cell membrane, [3H] N-α-methylhistamine
Experimental: 10 μL of the prepared compound solution was allocated in each well of a 96-well plate, and then 10 μL of 200 μM (R)(−)-α-methylhistamine (RaMH) diluted with analysis buffer and 1% of DMSO were transferred to each well to calculate non-specific binding and total binding degree. 15 μg of human histamine 3 receptor-overexpressed cell membrane (PerkinElmer) was diluted with 180 μL of analysis buffer solution (50 mM tris-HCl pH 7.4, 5 mM MgCl2), and that was transferred to each well. [^3H] labeled Na-methylhistamine (PerkinElmer) was diluted into […], 10 μL of that was added to each well, and then it was kept in a 27° C. incubator for 30 minutes. After the reaction, 200 μL of the mixture was transferred to a glass fiber plate in which 0.5% polyethylene amine was presoaked, and then non-binding [^3H] labeled Na-methylhistamine was removed in vacuum. After 5 times washing with 200 μL of washing buffer solution (50 mM tris-HCl, pH 7.4), the plate was dried in a 37° C. oven for 18 hours. 100 μL of betascint cocktail solution was added to each well, and after 1 hour CPM of [^3H] labeled N-α-methylhistamine was measured by using Wallac beta-counter TriLux. The binding affinity (IC50) of the human histamine 3 receptor for the present invention was analyzed by an Excel program, and the results of analysis are shown in Table 2.

[3] = Metabolic stability in mouse microsome; conditions: mouse microsome 1 mg/mL, 5 μM compound, 1 mM NADPH
[4] = Metabolic stability in human microsome; conditions: human microsome 1 mg/mL, 5 μM compound, 1 mM NADPH
[5] = Solubility in artificial gastrointestinal tract solution; assay type: physicochemical; conditions: artificial gastrointestinal tract solution, thermodynamic from solid; for solubility at 1 h: fassgf or other biorelevant, first solution pH 1.2, 2 mg/mL sample, 37° C. 1 hour; for solubility at 2 h: fassif, second solution pH 6.5, 2 mg/mL sample, 37° C. 2 hours
Experimental: 2.0 g of sodium chloride was added in 7.0 mL of 37% of hydrochloric acid and water to make the total volume of 1 L. The pH was adjusted to exactly 1.2 with 1N sodium hydroxide or 1N hydrochloric acid. A small amount (20 mL) of this solution was taken and added in 25 μL of triton X-100 to make the total volume of 25 mL.
0.348 g sodium hydroxide, 3.438 g NaH2PO4, 6.186 g sodium chloride and water were added to make the total volume of 1 L. The pH was adjusted to exactly 6.5 with 1N sodium hydroxide or 1N hydrochloric acid. A small amount (20 mL) of this solution was taken and 41.25 mg of sodium taurocholate hydrate and 25 μL of 750 mM lecithin dissolved in ethanol was added to make the total volume of 25 mL.
The heated test sample solutions were filtered to remove undissolved compounds therein. Finally, 100 μL of the completely compound-dissolved solution was sampled and 100 μL of CH3CN was added thereto to make the test sample solution. For each analysis of the test sample solution, the solubility was measured by using liquid chromatography.

Chain of human histamine 3 receptor (hH3R) (Q9Y5N1 whole entry): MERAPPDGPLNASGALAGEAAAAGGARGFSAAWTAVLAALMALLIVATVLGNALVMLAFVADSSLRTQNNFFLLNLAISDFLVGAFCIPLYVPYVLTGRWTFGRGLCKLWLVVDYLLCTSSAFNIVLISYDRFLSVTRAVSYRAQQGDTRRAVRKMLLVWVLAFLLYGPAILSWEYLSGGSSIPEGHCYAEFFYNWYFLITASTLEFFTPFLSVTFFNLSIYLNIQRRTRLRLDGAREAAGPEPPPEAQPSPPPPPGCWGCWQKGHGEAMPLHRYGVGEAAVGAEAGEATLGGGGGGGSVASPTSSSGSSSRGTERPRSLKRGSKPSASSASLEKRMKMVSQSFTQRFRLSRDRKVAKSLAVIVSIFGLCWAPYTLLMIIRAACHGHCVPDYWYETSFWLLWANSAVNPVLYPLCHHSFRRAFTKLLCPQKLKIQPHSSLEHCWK
Chain of human histamine 4 receptor (hH4R) (Q9H3N8 whole entry): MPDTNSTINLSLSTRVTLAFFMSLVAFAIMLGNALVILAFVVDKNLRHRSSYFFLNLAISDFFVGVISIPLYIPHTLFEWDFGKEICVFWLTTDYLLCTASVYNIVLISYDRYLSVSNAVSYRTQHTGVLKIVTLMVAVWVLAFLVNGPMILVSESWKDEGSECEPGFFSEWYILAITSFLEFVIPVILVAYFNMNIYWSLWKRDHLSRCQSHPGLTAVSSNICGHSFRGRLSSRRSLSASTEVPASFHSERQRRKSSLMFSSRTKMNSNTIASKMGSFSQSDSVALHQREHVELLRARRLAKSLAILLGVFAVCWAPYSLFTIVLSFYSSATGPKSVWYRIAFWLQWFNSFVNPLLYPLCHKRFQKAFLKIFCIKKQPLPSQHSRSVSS

For `CN1CCN(c2nc3ncc(C#N)cc3n3cnnc23)CC1` [Compound 13, 4-(4-Methylpiperazin-1-yl)pyrido[2,3-e][1,2,4]triazolo[4,3-a]pyrazin-8-carbonitrile], the IC50 [1] was 0.238 µM, the IC50 [2] was greater than 100 µM and the “Metabolic stability (CLh. int), Mouse” value [3] was 3070 µL/min/mg. For the same compound, the “Metabolic stability (CLh. int), Human” value [4] was 2710 µL/min/mg.
With `CN1CCN(c2nc3nc(Cl)c(Cl)cc3n3cnnc23)CC1` [Compound 17, 7,8-Dichloro-4-(4-methylpiperazin-1-yl)pyrido[2,3-e][1,2,4]triazolo[4,3-a]pyrazine] the IC50 [1] was 0.177 µM, the IC50 [2] was greater than 100 µM and the “Metabolic stability (CLh. int), Mouse” value [3] was 17130 µL/min/mg. The “Metabolic stability (CLh. int), Human” value [4] was 5880 µL/min/mg.
For `CN1CCN(c2nc3nc(C#N)c(Cl)cc3n3cnnc23)CC1` [Compound 21, 8-Chloro-4-(4-methylpiperazin-1-yl)pyrido[2,3-e][1,2,4]triazolo[4,3-a]pyrazin-7-carbonitrile], the IC50 [1] was 0.27 µM, the “Metabolic stability (CLh. int), Mouse” value [3] was 7130 µL/min/mg and the “Metabolic stability (CLh. int), Human” value [4] was 4870 µL/min/mg.
In the case of `N#Cc1cnc2nc(N3CCNCC3)c3nncn3c2c1` [Compound 26, 4-(piperazin-1-yl)pyrido[2,3-e][1,2,4]triazolo[4,3-a]pyrazin-8-carbonitrile], the IC50 [1] is reported as 0.22 µM, the IC50 [2] is reported as greater than 100 µM and the “Metabolic stability (CLh. int), Mouse” value [3] is reported as 6740 µL/min/mg. For the same compound, the “Metabolic stability (CLh. int), Human” value [4] was 2450 µL/min/mg.
In the case of `CNC1CN(c2nc3nc(Cl)c(Cl)cc3n3cnnc23)C1` [Compound 27, 1-(7,8-Dichloropyrido[2,3-e][1,2,4]triazolo[4,3-a]pyrazin-4-yl)-N-methylazetidin-3-amine], the IC50 [2] is reported as greater than 100 µM, the “Metabolic stability (CLh. int), Mouse” value [3] is reported as 7270 µL/min/mg and the “Metabolic stability (CLh. int), Human” value [4] is reported as 1240 µL/min/mg.
In the case of `CN1CCN(c2nc3ncc(Cl)cc3c3nc(C4CC4)nn23)CC1` [Compound 38, 9-Chloro-2-cyclopropyl-5-(4-methylpiperazin-1-yl)pyrido[3,2-e][1,2,4]triazolo[1,5-c]pyrimidine], the IC50 [2] is reported as greater than 100 µM, the “Metabolic stability (CLh. int), Mouse” value [3] is reported as 14900 µL/min/mg and the “Metabolic stability (CLh. int), Human” value [4] is reported as 7180 µL/min/mg.
With `Clc1cnc2nc(N3CCNCC3)n3nc(C4CC4)nc3c2c1` [Compound 39, 9-Chloro-2-cyclopropyl-5-(piperazin-1-yl)pyrido[3,2-e][1,2,4]triazolo[1,5-c]pyrimidine] the IC50 [1] was 0.13 µM, the IC50 [2] was greater than 100 µM and the “Metabolic stability (CLh. int), Mouse” value [3] was 5090 µL/min/mg. For the same compound, the “Metabolic stability (CLh. int), Human” value [4] was 2840 µL/min/mg.
In the case of `Cn1cc2c(n1)c(N1CCNCC1)nc1ncc(Cl)cc12` [Compound 45, 8-Chloro-2-methyl-4-(piperazin-1-yl)-2H-pyrazolo[3,4-c][1,8]naphthylidine], the IC50 [2] is reported as greater than 100 µM, the “Metabolic stability (CLh. int), Mouse” value [3] is reported as 12990 µL/min/mg and the “Metabolic stability (CLh. int), Human” value [4] is reported as 3260 µL/min/mg.
With `CN1CCN(c2nc3ncc(C(F)(F)F)cc3n3cnnc23)CC1` [Compound 53, 4-(4-Methylpiperazin-1-yl)-8-(trifluoromethyl)pyrido[2,3-e][1,2,4]triazolo[4,3-a]pyrazine] the IC50 [1] was 0.28 µM, the “Metabolic stability (CLh. int), Mouse” value [3] was 3380 µL/min/mg and the “Metabolic stability (CLh. int), Human” value [4] was 2340 µL/min/mg.
With `C#Cc1cnc2nc(N3CC(NC)C3)c3nncn3c2c1` [Compound 54, 1-(8-Ethynylpyrido[2,3-e][1,2,4]triazolo[4,3-a]pyrazin-4-yl)-N-methylazetidin-3-amine] the IC50 [1] was 0.2 µM, the IC50 [2] was greater than 100 µM and the “Metabolic stability (CLh. int), Mouse” value [3] was 680 µL/min/mg. For the same compound, the “Metabolic stability (CLh. int), Human” value [4] was 1160 µL/min/mg.
With `CNC1CN(c2nc3ncc(OC)cc3n3cnnc23)C1` [Compound 58, 1-(8-Methoxypyrido[2,3-e][1,2,4]triazolo[4,3-a]pyrazin-4-yl)-N-methylazetidin-3-amine] the IC50 [1] was 0.21 µM, the IC50 [2] was greater than 100 µM and the “Metabolic stability (CLh. int), Mouse” value [3] was 12740 µL/min/mg. The “Metabolic stability (CLh. int), Human” value [4] was 2800 µL/min/mg.
With `CNC1CN(c2nc3ncc(OC(F)F)cc3n3cnnc23)C1` [Compound 59, 1-(8-(Difluoromethoxy)pyrido[2,3-e][1,2,4]triazolo[4,3-a]pyrazin-4-yl)-N-methylazetidin-3-amine] the IC50 [1] was 0.89 µM, the IC50 [2] was greater than 100 µM and the “Metabolic stability (CLh. int), Mouse” value [3] was 1230 µL/min/mg. For the same compound, the “Metabolic stability (CLh. int), Human” value [4] was 1320 µL/min/mg.
For `Clc1cc2c(nc1Cl)nc(N1CCNCC1)c1nncn12` [Compound 62, 7,8-Dichloro-4-(piperazin-1-yl)pyrido[2,3-e][1,2,4]triazolo[4,3-a]pyrazine], the IC50 [1] was 0.51 µM, the IC50 [2] was greater than 100 µM and the “Metabolic stability (CLh. int), Mouse” value [3] was 7980 µL/min/mg. For the same compound, the “Metabolic stability (CLh. int), Human” value [4] was 4170 µL/min/mg.
In the case of `CNC1CN(c2nc3ncc(Br)c(C)c3n3cnnc23)C1` [Compound 65, 1-(8-Bromo-9-methylpyrido[2,3-e][1,2,4]triazolo[4,3-a]pyrazin-4-yl)-N-methylazetidin-3-amine], the IC50 [1] is reported as 0.73 µM, the IC50 [2] is reported as greater than 100 µM and the “Metabolic stability (CLh. int), Mouse” value [3] is reported as 6490 µL/min/mg. For the same compound, the “Metabolic stability (CLh. int), Human” value [4] was 3210 µL/min/mg.
For `Clc1cnc2nc(N3C[C@@H]4C[C@H]3CN4)c3nncn3c2c1` [Compound 77, 4-((1S,4S)-2,5-diazabicyclo[2.2.1]heptan-2-yl)-8-chloropyrido[2,3-e][1,2,4]triazolo[4,3-a]pyrazine], the IC50 [1] was 0.49 µM, the IC50 [2] was greater than 100 µM and the “Metabolic stability (CLh. int), Mouse” value [3] was 320 µL/min/mg. The “Metabolic stability (CLh. int), Human” value [4] was 1330 µL/min/mg.
In the case of `CN1C[C@@H]2C[C@H]1CN2c1nc2ncc(Cl)cc2n2cnnc12` [Compound 78, 8-Chloro-4-((1S,4S)-5-methyl-2,5-diazabicyclo[2.2.1]heptan-2-yl)pyrido[2,3-e][1,2,4]triazolo[4,3-a]pyrazine], the IC50 [1] is reported as 0.43 µM, the IC50 [2] is reported as greater than 100 µM and the “Metabolic stability (CLh. int), Mouse” value [3] is reported as 1460 µL/min/mg. For the same compound, the “Metabolic stability (CLh. int), Human” value [4] was 2360 µL/min/mg.
In the case of `CNC1CN(c2nc3ncc(Br)cc3n3ccnc23)C1` [Compound 89, 1-(8-Bromoimidazo[1,2-a]pyrido[2,3-e]pyrazin-4-yl)-N-methylazetidin-3-amine], the IC50 [1] is reported as 0.36 µM, the IC50 [2] is reported as greater than 100 µM and the “Metabolic stability (CLh. int), Mouse” value [3] is reported as 10710 µL/min/mg. The “Metabolic stability (CLh. int), Human” value [4] was 3190 µL/min/mg.
In the case of `CN(O)C1CN(c2nc3ncc(Br)cc3n3cnnc23)C1` [Compound 102, N-(1-(8-bromopyrido[2,3-e][1,2,4]triazolo[4,3-a]pyrazin-4-yl)azetidin-3-yl)-N-methylhydroxylamine], the IC50 [2] is reported as greater than 100 µM, the “Metabolic stability (CLh. int), Mouse” value [3] is reported as 6780 µL/min/mg and the “Metabolic stability (CLh. int), Human” value [4] is reported as 1990 µL/min/mg.
`CNC1CN(c2nc3ncc(Br)cc3n3cnnc23)C1.O=C(O)C(F)(F)F` [Compound 104, 1-(8-bromopyrido[2,3-e][1,2,4]triazolo[4,3-a]pyrazin-4-yl)-N-methylazetidin-3-amine 2,2,2-trifluoroacetate] showed an IC50 ([1]; 2,2,2-trifluoroacetate) of 0.03 µM, an IC50 [2] greater than 100 µM and a solubility at 1 h [5] of 1510 µg/mL. The solubility at 2 h [5] was 1560 µg/mL.
With `CNC1CN(c2nc3ccc(Cl)nc3n3cnnc23)C1` [Compound 116, 1-(2-chloropyrido[3,2-e][1,2,4]triazolo[4,3-a]pyrazin-6-yl)-N-methylazetidin-3-amine] the IC50 [1] was 0.24 µM, the IC50 [2] was greater than 100 µM and the solubility at 1 h [5] was 1940 µg/mL (≈ 6.7 mM). For the same compound, the solubility at 2 h [5] was 960 µg/mL (≈ 3.31 mM).
